From patent US9211270B2, “Method for improving the efficacy of curcuminoids and their analogs” (ASAC Compañía de Biotecnología e Investigación, S.A., priority 2007, dated 2015)

Tests used:
[1] = tested on: psoriasis; settings: 12 week studies; cited from earlier work
[2] = tested on: A431 cells (human epidermal carcinoma); assay: Inhibition of tumor growth in mice, intraperitoneal Curcumin with visible light; format: in vivo, athymic nude mice (NMRI); settings: day 12, Curcumin 50 mg/kg per day i.p. + visible light 5500 lx 20 minutes
Method: 5*10^6 A431 cells (human epidermal carcinoma) were injected subcutaneously into the left and right flanks of athymic nude mice (NMRI) (5-6 weeks old, 20-24 g). The mice were fed in pathogen-free conditions. The animals were fed ad libitum with sterilized food. The animals were sterilized with ketamine/xylazine.
The irradiation device was 10 Phillips TLK 40W/03 lamps (60 cm length*4 cm diameter), at a distance of 45 cm. The emission range of the lamps was between 400-550 nm with a maximum at 420 nm.
Tumor size was measured initially and after 10-12 days; afterwards tumor volumes and weights were determined twice a week. At the end of the experiment (29 days), the animals were anesthetized and sacrificed.

| Compound | patients who reached a score of PASI-75 [1] | reduction of average tumor volume in comparison to control mice [2] [%] |
| --- | --- | --- |
| Efalizumab | 22-35% | – |
| COc1cc(/C=C/C(=O)CC(=O)/C=C/c2ccc(O)c(OC)c2)ccc1O [Curcumin, curcumin (diferuloylmethane)] | – | 70 |
